The subject of experiment [1] is FLOD-S derived from S-1F4 strain. The experiment in a line: Effect of various inhibitors on activity of FLOD-S; stabilization. Type of experiment: biochemical, Fusarium oxysporum S-1F4.
Method: In the present test, the final concentration of PCMB (parachloro mercuric benzoate) is 0.1 mM while that of others 1 mM. The stabilization effect was examined by dialyzing the mixture overnight against 50 mM Tris-HCl buffer (pH 8.5) containing 2 mM dithiothreitol (DTT) and measuring the enzyme activity.
Experiment [2] concerns FLOD-G derived from Gibberella fujikuroi. Kind of experiment: Effect of various inhibitors on the activity of FLOD-G; stabilization. Type of experiment: biochemical.
Method: The inhibitory effect of various substances was tested in a manner substantially analogous to that described in (1) above. The stabilization effect was examined by dialyzing overnight against 50 mM Tris-HCl buffer (pH 8.5) containing 2 mM DTT and measuring the activity.
The test system of experiment [3] is FLOD-S derived from S-1F4 strain. The experiment in a line: Effect of metal ion on the activity of FLOD-S. Type of experiment: biochemical, Fusarium oxysporum S-1F4. The protocol: After 5 minutes of incubation at 30° C., the enzyme activity was evaluated.
The test system of experiment [4] is FLOD-G derived from Gibberella fujikuroi (IFO No. 6605). Kind of experiment: Effect of metal ion on the activity of FLOD-G. The class given is biochemical. The protocol:
Then, the enzyme activity was evaluated.

The subject of experiment [5] is FLOD-S derived from S-1F4 strain. Kind of experiment: Substrate specificity of FLOD-S (hydrogen peroxide generation).
Method: The partially purified enzyme was prepared in the following manner. Thus, S-1F4 strain was grown in a GL brown-colored medium for 24 hours and the culture was filtered with suction to harvest mycelia. The mycelia were then washed, suspended in 0.1 M Tris-HCl buffer (pH 8.5), ground by means of Dino-Mill and centrifuged. The centrifugal supernatant is fractionated with ammonium sulfate and purified using DEAE-Sephacel ion-exchange chromatography to obtain the partially purified enzyme. The purified enzyme was prepared according to the method described in Example 1 below.
A 50 mM FZL solution was prepared by dissolving FZL previously obtained in distilled water. To a mixture of 100 μl of 45 mM 4-aminoantipyrine, 100 μl of peroxidase (60 U/ml), 100 μl of 60 mM phenol, 1 ml of 0.1 M Tris-HCl buffer (pH 8.0) and 50 μl of enzyme solution was added distilled water to give a total volume of 2.9 ml and the solution was allowed to equilibrate at 30° C. After the addition of 100 μl of 50 mM FZl solution, the time-course of absorbance at 505 nm was measured. The amount (μmol) of hydrogen peroxide produced in one minute was calculated on the basis of a molar absorption coefficient (5.16×10^3 M^-1 cm^-1) of a quinone pigment produced. The resultant numerical value was taken as a unit(U) of enzyme activity.
In experiment [6] the test system is FLOD-G derived from Gibberella fujikuroi. Kind of experiment: Substrate specificity of FLOD-G.
Method: To a mixture of 100 μl of 45 mM 4-aminoantipyrine, 100 μl of peroxidase solution (60 U/ml), 100 μl of 60 mM phenol, 1 ml of 0.1 M Tris-HCl buffer (pH 8.0) and 50 μl of enzyme solution, was added distilled water to give a total volume of 2.95 ml and the solution was allowed to be equilibrated at 30° C. After the addition of 50 μl of 100 mM FZL solution, the time-course of absorbance at 505 nm was measured. The amount (μmol) of hydrogen peroxide produced in one minute was calculated on the basis of a molar absorption coefficient (5.16×10^3 M^-1 cm^-1) of a quinone pigment produced. The resultant numerical value was taken as a unit (U) of enzyme activity.
Where [7] appears, read: inhibitor (mM), concentration not given, None = 100.
Setting [8] is: metal 1 mM, 0.1 M Tris-HCl pH 8.0, 5 minutes at 30° C., None = 100.
Setting [9] is: metal 1 mM, 0.1 M Tris-HCl pH 8.0, pre-incubated 5 minutes at 30° C., None = 100.
The mark [10] stands for this setting: partially purified FLOD-S, substrate 0.018%.

Like-named read-outs stand apart in the source and are kept apart here.

For `O[C@H](CS)[C@H](O)CS` (racemic) [dithiothreitol], the “Stabilization of FLOD-S” value in experiment [1] (pH 8.5) is given as “stabilized”. Moreover, in experiment [2] (dialysis overnight against 50 mM Tris-HCl buffer (pH 8.5) containing 2 mM DTT), the “Stabilization of FLOD-G” value was “stabilized”.
Take `O=C(O)c1cc(SSc2ccc([N+](=O)[O-])c(C(=O)O)c2)ccc1[N+](=O)[O-]` [5,5',-Dithiobis(2-nitrobenzoic acid)]: the “Specific activity (%)” value came out at 95% in experiment [1] (reagent 1 mM, None = 100) and 76% in experiment [2] (setting [7]).
As for `O=[N+]([O-])[O-].[Ag+]` [AgNO3], in experiment [3] (metal 1 mM), the “Inhibition of FLOD-S activity by metal ion” value is given as “completely inhibited”. Moreover, the “Specific activity (%)” value in experiment [3] (setting [8]) and in experiment [4] (setting [9]) was 0% in each case. In experiment [4] (metal 1 mM), the “Inhibition of FLOD-G activity by metal ion” value is “completely inhibited”.
On to `N=C(N)NN` [Aminoguanidine], for which the “Specific activity (%)” value in experiment [1] (reagent 1 mM, None = 100) came out at 66%; in experiment [2] (setting [7]), 50%. The “Inhibition of FLOD-G activity by inhibitor” value in experiment [2] was “strongly inhibited”.
In the case of `[Ba+2].[Cl-].[Cl-]` [BaCl2], the “Specific activity (%)” value in experiment [3] (setting [8]) is given as 60%; in experiment [4] (setting [9]), 103%.
As to `[Ca+2].[Cl-].[Cl-]` [CaCl2], the “Specific activity (%)” value in experiment [3] (setting [8]) turned out to be 77%; in experiment [4] (setting [9]), 97%.
For `C#CCN(C)CCCOc1ccc(Cl)cc1Cl` [Clorgyline], in experiment [1] (reagent 1 mM, None = 100), the “Specific activity (%)” value was 132%.
Turning to `O=S(=O)([O-])[O-].[Co+2]` [CoSO4], the results for the “Specific activity (%)” value in experiment [3] (setting [8]) and in experiment [4] (setting [9]) were 42% and 15%, respectively. Also, in experiment [4] (metal 1 mM), the “Inhibition of FLOD-G activity by metal ion” value is given as “inhibited”.
On to `[Cl-].[Cs+]` [CsCl2], for which the “Specific activity (%)” value in experiment [3] (setting [8]) stood at 102%; in experiment [4] (setting [9]), 97%.
On to `[Cl][Cu][Cl]` [CuCl2], for which the “Inhibition of FLOD-S activity by metal ion” value in experiment [3] (metal 1 mM) is recorded as “completely inhibited”. Also, the “Specific activity (%)” value is recorded as 0% in experiment [3] (setting [8]) and 2% in experiment [4] (setting [9]). In addition, the “Inhibition of FLOD-G activity by metal ion” value in experiment [4] (metal 1 mM) is “inhibited”.
Take `C#CCN(C)C(C)Cc1ccccc1` (stereo not shown) [Deprenyl]: the “Specific activity (%)” value in experiment [1] (reagent 1 mM, None = 100) was found to be 102%; in experiment [2] (setting [7]), 81%.
Turning to `O=C(O)CN(CCN(CC(=O)O)CC(=O)O)CC(=O)O` [EDTA], the “Specific activity (%)” value in experiment [2] worked out at 81%.
`[Cl][Fe]([Cl])[Cl]` [FeCl3]: the “Specific activity (%)” value is 67% in experiment [3] (setting [8]) and 16% in experiment [4] (setting [9]). For the same molecule, the “Inhibition of FLOD-G activity by metal ion” value in experiment [4] (metal 1 mM) was “inhibited”.
Take `O=S(=O)([O-])[O-].[Fe+2]` [FeSO4]: the “Specific activity (%)” value in experiment [3] (setting [8]) is listed as 97%; in experiment [4] (setting [9]), 74%.
Take `O=C(N[C@@H](CCCCNCC(=O)[C@@H](O)[C@H](O)[C@H](O)CO)C(=O)O)OCc1ccccc1` [Fructosyl N^α -Z-lysine, fructosyl N^α -Z-lysine]: the “Specificity of FLOD-S to substrate” value in experiment [5] is reported as “remarkably specific”.
In the case of `[Cl][Hg][Cl]` [HgCl2], in experiment [3] (metal 1 mM), the “Inhibition of FLOD-S activity by metal ion” value is recorded as “completely inhibited”. The “Specific activity (%)” value in experiment [3] (setting [8]) is listed as 0%; in experiment [4] (setting [9]), 25%. Moreover, in experiment [4] (metal 1 mM), the “Inhibition of FLOD-G activity by metal ion” value is “inhibited”.
For the molecule `NN` [Hydrazine], the “Inhibition of FLOD-S activity by inhibitor” value in experiment [1] is given as “inhibited”. In addition, the “Specific activity (%)” value in experiment [1] (reagent 1 mM, None = 100) is given as 13%; in experiment [2] (setting [7]), 14%. For the same molecule, the “Inhibition of FLOD-G activity by inhibitor” value in experiment [2] is “strongly inhibited”.
For `NO` [Hydroxylamine], the “Specific activity (%)” value in experiment [1] (reagent 1 mM, None = 100) is on record as 21%; in experiment [2] (setting [7]) it was 16%. For the same molecule, the “Inhibition of FLOD-G activity by inhibitor” value in experiment [2] is given as “strongly inhibited”.
As to `O=C(O)CI` [Iodoacetic acid], the “Specific activity (%)” value is given as 102% in experiment [1] and 77% in experiment [2].
As for `[Cl-].[K+]` [KCl], the “Specific activity (%)” value came out at 104% in experiment [3] (setting [8]) and 98% in experiment [4] (setting [9]).
The like results for `[Cl-].[Li+]` [LiCl] were, in that order, 100% and 96%.
In the same order, the values of `[Cl-].[Cl-].[Mg+2]` [MgCl2] are 75% and 94%.
In the same order, the values of `[Cl][Mn][Cl]` [MnCl2] are 154% and 115%.
Consider `[Cl-].[Na+]` [NaCl], for which the entries for the “Specific activity (%)” value in experiment [3] (pH 8) and in experiment [4] (pH 8) were 107% and 97%, respectively.
Consider `c1cnc2c(c1)ccc1cccnc12` [O-Phenanthrolene], for which the “Specific activity (%)” value is given as 103% in experiment [1] (reagent 1 mM, None = 100) and 78% in experiment [2] (setting [7]).
Consider `O=C(O)c1cc[c]([Hg][Cl])cc1` [PCMB, parachloro mercuric benzoate], for which the “Inhibition of FLOD-S activity by inhibitor” value in experiment [1] (PCMB 0.1 mM, others 1 mM) is given as “completely inhibited”. Besides, the “Specific activity (%)” value in experiment [1] (reagent 0.1 mM, None = 100) is on record as 0%; in experiment [2] (inhibitor 0.1 mM, None = 100) it was 51%. In experiment [2], the “Inhibition of FLOD-G activity by inhibitor” value is on record as “strongly inhibited”.
As for `NNc1ccccc1` [Phenylhydrazine], the “Inhibition of FLOD-S activity by inhibitor” value in experiment [1] is recorded as “inhibited”. The “Specific activity (%)” value was found to be 2.6% in experiment [1] (reagent 1 mM, None = 100) and 13% in experiment [2] (setting [7]). Also, the “Inhibition of FLOD-G activity by inhibitor” value in experiment [2] is on record as “strongly inhibited”.
For `[Cl-].[Rb+]` [RbCl], the “Specific activity (%)” value stood at 103% in experiment [3] (setting [8]) and 97% in experiment [4] (setting [9]).
For the molecule `NNC(N)=O` [Semicarbazide], the “Specific activity (%)” value in experiment [1] (reagent 1 mM, None = 100) stood at 103%; in experiment [2] (setting [7]), 77%.
In the same order, the values of `[N-]=[N+]=[N-]` [Sodium azide] are 101% and 78%.
In the case of `O=S(=O)([O-])[O-].[Zn+2]` [ZnSO4], in experiment [3] (metal 1 mM), the “Inhibition of FLOD-S activity by metal ion” value is on record as “completely inhibited”. In addition, the “Specific activity (%)” value is recorded as 0% in experiment [3] (setting [8]) and 33% in experiment [4] (setting [9]). For the same molecule, in experiment [4] (metal 1 mM), the “Inhibition of FLOD-G activity by metal ion” value was “inhibited”.
Take `c1ccc(-c2ccccn2)nc1` [α,α'-Dipyridyl]: the “Specific activity (%)” value in experiment [1] (reagent 1 mM, None = 100) was found to be 106%; in experiment [2] (setting [7]) it was 78%.
As to Fructosyl poly-L-lysine, in experiment [5], the “Specificity of FLOD-S to substrate” value is listed as “specific”. The Activity in experiment [5] (setting [10]) is recorded as 0.0738 U/ml. The “Specific activity (%)” value in experiment [5] (setting [10]) is listed as 2.3%; in experiment [5] (purified FLOD-S, substrate 0.02%), 2.3%; in experiment [6] (FLOD-G, substrate 0.017%), 1.0%. For the same molecule, in experiment [6], the “Activity of FLOD-G on substrate” value is “active”.

(Values after patent US5972671A, “Fructosyl amino acid oxidase and process for producing the same” (Kyoto Daiichi Kagaku Co., Ltd., priority 1994, dated 1999).)
